# Reference: patent US12173020B2, “New-type oxazolidinone compounds and preparation method therefor” (priority 2019, dated 2024)
# How the values were obtained:
# [1] = tested on: vancomycin-resistant Enterococcus (VRE); assay: agar dilution method, inhibitory effect on VRE; assay type: cell-based; conditions: for MIC50: Enterococcus, read-out: Minimum inhibitory concentration (MIC50, μg/ml) VRE
# Text: (§1) In order to determine the antibacterial activity of these new oxazolidinone-based compounds, an agar dilution method was used to test the inhibitory effect on methicillin-resistant Staphylococcus aureus (MRSA) and vancomycin-resistant Enterococcus (VRE). The bacteria inhibition effect was expressed as minimum inhibitory concentration (MIC50, μg/ml) The test results are shown in the following table.
# [2] = tested on: methicillin-resistant Staphylococcus aureus (MRSA); assay: agar dilution method, inhibitory effect on MRSA; assay type: cell-based; conditions: for MIC50: Staphylococcus aureus, read-out: Minimum inhibitory concentration (MIC50, μg/ml) MRSA
# Text: as §1
"Minimum inhibitory concentration (MIC50, μg/ml) VRE [1]","Minimum inhibitory concentration (MIC50, μg/ml) MRSA [2]",MIC50 [1],MIC50 [2],SMILES
0.3 µg/mL,0.2 µg/mL,,,"CCC(OP(=O)(O)O)[C@@H]1CN(c2ccc(-c3ccc(-c4nnn(C5CC5)n4)nc3)c(F)c2)C(=O)O1 (stereo partly drawn) [compound 116, (S)-3-(3-fluoro-4-(6-(2-cyclopropyl-2H-tetrazol-5-yl)pyridin-3-yl)phenyl)-5-(1-hydroxypropyl)) oxazolidin-2-one phosphate]"
0.4 µg/mL,0.4 µg/mL,,,O=C1O[C@@H](C(O)F)CN1c1ccc(-c2ccc(-c3nnn(C4CC4)n3)nc2)c(F)c1.O=P(O)(O)O (stereo partly shown) [compound 117]
0.6 µg/mL,0.6 µg/mL,,,"O=C1O[C@H](C(F)OP(=O)(O)O)CN1c1ccc(-c2ccc(-c3nnn(C4CC4)n3)nc2)c(F)c1 (stereo partly drawn) [compound 118, (S)-3-(3-fluoro-4-(6-(2-cyclopropyl-2H-tetrazol-5-yl)pyridin-3-yl)phenyl)-5-(hydroxyfluoromethyl)) oxazolidin-2-one phosphate]"
0.7 µg/mL,0.7 µg/mL,,,"C=Cn1nnc(-c2ccc(-c3ccc(N4C[C@H](C(O)C(F)(F)F)OC4=O)cc3F)cn2)n1.O=P(O)(O)O (stereo partly drawn) [compound 119, (R)-3-(3-fluoro-4-(6-(2-vinyl-2H-tetrazol-5-yl)pyridin-3-yl)phenyl)-5-(1-hydroxy-2-trifluoroethyl) oxazolidin-2-one phosphate]"
0.2 µg/mL,0.2 µg/mL,,,"C=Cn1nnc(-c2ccc(-c3ccc(N4C[C@@H](C(OP(=O)(O)O)C(F)(F)F)OC4=O)cc3F)cn2)n1 (stereo partly drawn) [compound 120, (S)-3-(3-fluoro-4-(6-(2-vinyl-2H-tetrazol-5-yl)pyridin-3-yl)phenyl)-5-(1-hydroxy-2-trifluoroethyl) oxazolidin-2-one phosphate]"
,,1.1 µg/mL,1.1 µg/mL,"C=Cn1nnc(-c2ccc(-c3ccc(N4C[C@H](C(C)O)OC4=O)cc3F)cn2)n1.O=P(O)(O)O (stereo partly drawn) [compound 121, (R)-3-(3-fluoro-4-(6-(2-vinyl-2H-tetrazol-5-yl)pyridin-3-yl)phenyl)-5-(1-hydroxyethyl) oxazolidin-2-one phosphate]"
,,0.9 µg/mL,1 µg/mL,"C=Cn1nnc(-c2ccc(-c3ccc(N4C[C@@H](C(C)O)OC4=O)cc3F)cn2)n1.O=P(O)(O)O (stereo partly drawn) [compound 122, (S)-3-(3-fluoro-4-(6-(2-vinyl-2H-tetrazol-5-yl)pyridin-3-yl)phenyl)-5-(1-hydroxyethyl) oxazolidin-2-one phosphate]"
,,0.3 µg/mL,0.3 µg/mL,"C=Cn1nnc(-c2ccc(-c3ccc(N4C[C@H](C(O)CC)OC4=O)cc3F)cn2)n1.O=P(O)(O)O (stereo partly drawn) [compound 123, (R)-3-(3-fluoro-4-(6-(2-vinyl-2H-tetrazol-5-yl)pyridin-3-yl)phenyl)-5-(1-hydroxypropyl) oxazolidin-2-one phosphate]"
,,0.2 µg/mL,0.2 µg/mL,"C=Cn1nnc(-c2ccc(-c3ccc(N4C[C@@H](C(O)CC)OC4=O)cc3F)cn2)n1.O=P(O)(O)O (stereo partly drawn) [compound 124, (S)-3-(3-fluoro-4-(6-(2-vinyl-2H-tetrazol-5-yl)pyridin-3-yl)phenyl)-5-(1-hydroxypropyl) oxazolidin-2-one phosphate]"
,,0.3 µg/mL,0.3 µg/mL,"C=Cn1nnc(-c2ccc(-c3ccc(N4C[C@H](C(O)F)OC4=O)cc3F)cn2)n1.O=P(O)(O)O (stereo partly drawn) [compound 125, (R)-3-(3-fluoro-4-(6-(2-vinyl-2H-tetrazol-5-yl)pyridin-3-yl)phenyl)-5-(hydroxyfluoromethyl) oxazolidin-2-one phosphate]"
,,0.7 µg/mL,0.7 µg/mL,"C=Cn1nnc(-c2ccc(-c3ccc(N4C[C@@H](C(O)F)OC4=O)cc3F)cn2)n1.O=P(O)(O)O (stereo partly drawn) [compound 126, (S)-3-(3-fluoro-4-(6-(2-vinyl-2H-tetrazol-5-yl)pyridin-3-yl)phenyl)-5-(hydroxyfluoromethyl) oxazolidin-2-one phosphate]"
0.7 µg/mL,0.6 µg/mL,,,"Cn1nnc(-c2ccc(-c3ccc(N4C[C@H](C(O)C(F)F)OC4=O)cc3F)cn2)n1.O=P(O)(O)O (stereo partly drawn) [compound 127, (R)-3-(3-fluoro-4-(6-(2-methyl-2H-tetrazol-5-yl)pyridin-3-yl)phenyl)-5-(1-hydroxy-2-difluoroethyl) oxazolidin-2-one phosphate]"
0.5 µg/mL,0.5 µg/mL,,,"Cn1nnc(-c2ccc(-c3ccc(N4C[C@@H](C(OP(=O)(O)O)C(F)F)OC4=O)cc3F)cn2)n1 (stereo partly drawn) [compound 128, (S)-3-(3-fluoro-4-(6-(2-methyl-2H-tetrazol-5-yl)pyridin-3-yl)phenyl)-5-(1-hydroxy-2-difluoroethyl) oxazolidin-2-one phosphate]"
,,0.3 µg/mL,0.5 µg/mL,"Cn1nnc(-c2ccc(-c3ccc(N4C[C@H](C(O)CF)OC4=O)cc3F)cn2)n1.O=P(O)(O)O (stereo partly drawn) [compound 129, (R)-3-(3-fluoro-4-(6-(2-methyl-2H-tetrazol-5-yl)pyridin-3-yl)phenyl)-5-(1-hydroxy-2-fluoroethyl) oxazolidin-2-one phosphate]"
,,0.2 µg/mL,0.2 µg/mL,"Cn1nnc(-c2ccc(-c3ccc(N4C[C@@H](C(O)CF)OC4=O)cc3F)cn2)n1.O=P(O)(O)O (stereo partly drawn) [compound 130, (S)-3-(3-fluoro-4-(6-(2-methyl-2H-tetrazol-5-yl)pyridin-3-yl)phenyl)-5-(1-hydroxy-2-fluoroethyl) oxazolidin-2-one phosphate]"
,,0.1 µg/mL,0.2 µg/mL,"Cn1nnc(-c2ccc(-c3ccc(N4C[C@H](C(O)C5CC5)OC4=O)cc3F)cn2)n1.O=P(O)(O)O (stereo partly drawn) [compound 131, (R)-3-(3-fluoro-4-(6-(2-methyl-2H-tetrazol-5-yl)pyridin-3-yl)phenyl)-5-(1-hydroxy-1-cyclopropylmethyl) oxazolidin-2-one phosphate]"
,,0.3 µg/mL,0.3 µg/mL,"Cn1nnc(-c2ccc(-c3ccc(N4C[C@@H](C(O)C5CC5)OC4=O)cc3F)cn2)n1.O=P(O)(O)O (stereo partly drawn) [compound 132, (S)-3-(3-fluoro-4-(6-(2-methyl-2H-tetrazol-5-yl)pyridin-3-yl)phenyl)-5-(1-hydroxy-1-cyclopropylmethyl) oxazolidin-2-one phosphate]"
0.2 µg/mL,0.3 µg/mL,,,"CCn1nnc(-c2ccc(-c3ccc(N4C[C@H](C(O)C(F)F)OC4=O)cc3F)cn2)n1.O=P(O)(O)O (stereo partly drawn) [compound 133, (R)-3-(3-fluoro-4-(6-(2-ethyl-2H-tetrazol-5-yl)pyridin-3-yl)phenyl)-5-(1-hydroxy-2-difluoroethyl) oxazolidin-2-one phosphate]"
0.5 µg/mL,0.5 µg/mL,,,"CCn1nnc(-c2ccc(-c3ccc(N4C[C@@H](C(O)C(F)F)OC4=O)cc3F)cn2)n1.O=P(O)(O)O (stereo partly drawn) [compound 134, (S)-3-(3-fluoro-4-(6-(2-ethyl-2H-tetrazol-5-yl)pyridin-3-yl)phenyl)-5-(1-hydroxy-2-difluoroethyl) oxazolidin-2-one phosphate]"
,,0.3 µg/mL,0.4 µg/mL,"CCn1nnc(-c2ccc(-c3ccc(N4C[C@H](C(O)CF)OC4=O)cc3F)cn2)n1.O=P(O)(O)O (stereo partly drawn) [compound 135, (R)-3-(3-fluoro-4-(6-(2-ethyl-2H-tetrazol-5-yl)pyridin-3-yl)phenyl)-5-(1-hydroxy-2-fluoroethyl) oxazolidin-2-one phosphate]"
,,0.2 µg/mL,0.4 µg/mL,"CCn1nnc(-c2ccc(-c3ccc(N4C[C@@H](C(O)CF)OC4=O)cc3F)cn2)n1.O=P(O)(O)O (stereo partly drawn) [compound 136, (S)-3-(3-fluoro-4-(6-(2-ethyl-2H-tetrazol-5-yl)pyridin-3-yl)phenyl)-5-(1-hydroxy-2-fluoroethyl) oxazolidin-2-one phosphate]"
,,1.1 µg/mL,1.5 µg/mL,"CCn1nnc(-c2ccc(-c3ccc(N4C[C@H](C(O)C5CC5)OC4=O)cc3F)cn2)n1.O=P(O)(O)O (stereo partly drawn) [compound 137, (R)-3-(3-fluoro-4-(6-(2-ethyl-2H-tetrazol-5-yl)pyridin-3-yl)phenyl)-5-(1-hydroxy-1-cyclopropylmethyl) oxazolidin-2-one phosphate]"
,,1 µg/mL,1 µg/mL,"CCn1nnc(-c2ccc(-c3ccc(N4C[C@@H](C(O)C5CC5)OC4=O)cc3F)cn2)n1.O=P(O)(O)O (stereo partly drawn) [compound 138, (S)-3-(3-fluoro-4-(6-(2-ethyl-2H-tetrazol-5-yl)pyridin-3-yl)phenyl)-5-(1-hydroxy-1-cyclopropylmethyl) oxazolidin-2-one phosphate]"
0.9 µg/mL,0.8 µg/mL,,,"CCCn1nnc(-c2ccc(-c3ccc(N4C[C@H](C(OP(=O)(O)O)C(F)F)OC4=O)cc3F)cn2)n1 (stereo partly drawn) [compound 139, (R)-3-(3-fluoro-4-(6-(2-propyl-2H-tetrazol-5-yl)pyridin-3-yl)phenyl)-5-(1-hydroxy-2-difluoroethyl) oxazolidin-2-one phosphate]"
0.4 µg/mL,0.4 µg/mL,,,"CCCn1nnc(-c2ccc(-c3ccc(N4C[C@@H](C(O)C(F)F)OC4=O)cc3F)cn2)n1.O=P(O)(O)O (stereo partly drawn) [compound 140, (S)-3-(3-fluoro-4-(6-(2-propyl-2H-tetrazol-5-yl)pyridin-3-yl)phenyl)-5-(1-hydroxy-2-difluoroethyl) oxazolidin-2-one phosphate]"
,,0.2 µg/mL,0.3 µg/mL,"CCCn1nnc(-c2ccc(-c3ccc(N4C[C@H](C(O)CF)OC4=O)cc3F)cn2)n1.O=P(O)(O)O (stereo partly drawn) [compound 141, (R)-3-(3-fluoro-4-(6-(2-propyl-2H-tetrazol-5-yl)pyridin-3-yl)phenyl)-5-(1-hydroxy-2-fluoroethyl) oxazolidin-2-one phosphate]"
